The text below walks through data of PubChem BioAssay (NCI).

The structures appear in SMILES notation. “And” between values parts separate entries of the source, which are not always exact repeats. Equal values may be shown once.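 1) Cells in 96-well plates. 2) Compound, 48 h, 5 concentrations. 3) Linear interpolation between surrounding doses. 4) Unreached endpoint = highest concentration. GI50 = concentration required for 50% inhibition of growth. TGI: concentration producing complete growth inhibition.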

Test systems include RXF 393 renal; MDA-MB-231 breast; MCF7 breast; SNB-19 CNS; IGROV1 ovarian; OVCAR-4 ovarian; HCC-2998 colon; 786-0 renal; NCI-H522 lung; NCI/ADR-RES ovarian.
Holding throughout (assay): NCI tumour cell line growth inhibition, 48 h

As for `C[C@@H]1C[C@H](N)C[C@H](c2ccncc2NC(=O)c2ccc(F)c(-c3c(F)cccc3F)n2)C1`, the GI50 with RXF 393 renal was 11 µM and 7.73 µM; in the experiment with MDA-MB-231 breast it was 12.8 µM and 4.01 µM; in the experiment with MCF7 breast, 10.8 µM and > 10 µM; in the experiment on SNB-19 CNS, 15.6 µM and > 10 µM; in the experiment on IGROV1 ovarian it was 5.05 µM and 8.68 µM; in the experiment on OVCAR-4 ovarian it was 9.39 µM and > 10 µM. The GI50 is 3.42 µM and 4.16 µM in the experiment with HCC-2998 colon; 12.2 µM and > 10 µM in the experiment with 786-0 renal; 13.2 µM and > 10 µM in the experiment with NCI-H522 lung; 14.5 µM and > 10 µM with NCI/ADR-RES ovarian. The TGI was 26 µM and > 10 µM with RXF 393 renal; 26.8 µM and > 10 µM with MDA-MB-231 breast; 25 µM and > 10 µM in the experiment on MCF7 breast; 30.3 µM and > 10 µM with SNB-19 CNS; 21 µM and > 10 µM in the experiment on IGROV1 ovarian; 22 µM and > 10 µM with OVCAR-4 ovarian. The TGI in the experiment with HCC-2998 colon was 18 µM and > 10 µM; with 786-0 renal it was 25.6 µM and > 10 µM; in the experiment on NCI-H522 lung, 28.6 µM and > 10 µM; with NCI/ADR-RES ovarian, 30.6 µM and > 10 µM.

As to `CCC(CC)n1cnc2c(-c3cnc(N)cn3)nc(N3CC4CCC(C3)O4)nc21`, the GI50 in the experiment with RXF 393 renal was 0.153 µM; with MDA-MB-231 breast, 0.191 µM; in the experiment on MCF7 breast, 0.156 µM; in the experiment with SNB-19 CNS, 1.37 µM; in the experiment with IGROV1 ovarian, 0.0929 µM; in the experiment on OVCAR-4 ovarian it was 0.169 µM. The GI50 in the experiment on HCC-2998 colon is 0.465 µM; in the experiment with 786-0 renal, 0.237 µM; with NCI-H522 lung, 0.209 µM; in the experiment with NCI/ADR-RES ovarian it was 0.79 µM. Further, the TGI in the experiment on RXF 393 renal was 1.6 µM; in the experiment with MDA-MB-231 breast, above 100 µM; in the experiment with MCF7 breast, above 100 µM; in the experiment on SNB-19 CNS, above 100 µM; in the experiment on IGROV1 ovarian, 1.13 µM; with OVCAR-4 ovarian, 3.17 µM. Further, the TGI with HCC-2998 colon is above 100 µM; in the experiment on 786-0 renal it was above 100 µM; in the experiment on NCI-H522 lung, above 100 µM; in the experiment on NCI/ADR-RES ovarian, above 33.5 µM.

For the compound `O=C(c1c(F)c(F)c(F)c(F)c1F)c1c(F)c(F)c(F)c(F)c1F`, the TGI is 2.94 µM with RXF 393 renal; 3.46 µM in the experiment on MDA-MB-231 breast; 2.58 µM in the experiment on MCF7 breast; 16.3 µM in the experiment with SNB-19 CNS; 2.64 µM with IGROV1 ovarian; 3.14 µM with OVCAR-4 ovarian. Moreover, the TGI in the experiment with HCC-2998 colon stood at 3.47 µM; in the experiment on 786-0 renal, 1.64 µM; in the experiment on NCI-H522 lung it was 0.392 µM; in the experiment on NCI/ADR-RES ovarian it was 14.5 µM.

As for `CCOC(=O)c1[nH]c2cc(Cl)ccc2c1[C@@H](C(=O)NC(C)(C)C)N(CC)C(=O)CCCCC#Cc1cccc2c1CN(C1CCC(=O)NC1=O)C2=O` (stereo partly specified), the GI50 in the experiment with RXF 393 renal was 0.113 µM; with MDA-MB-231 breast, below 0.01 µM; in the experiment on MCF7 breast, 0.117 µM; with SNB-19 CNS, 0.0731 µM; in the experiment with IGROV1 ovarian, below 0.0109 µM; in the experiment with OVCAR-4 ovarian it was below 0.01 µM. The GI50 in the experiment with HCC-2998 colon is 0.225 µM; in the experiment with 786-0 renal it was 0.249 µM; in the experiment on NCI-H522 lung, 1.8 µM; in the experiment on NCI/ADR-RES ovarian it was 1.19 µM. Moreover, the TGI with RXF 393 renal was 3.91 µM; in the experiment on MDA-MB-231 breast, 1.68 µM; in the experiment with MCF7 breast it was above 100 µM; in the experiment on SNB-19 CNS it was 34.5 µM; in the experiment on IGROV1 ovarian, 11.1 µM; in the experiment with OVCAR-4 ovarian, 23.5 µM. For the same compound, the TGI with HCC-2998 colon is 58 µM; with 786-0 renal it was 8.63 µM; with NCI-H522 lung, 25.8 µM; with NCI/ADR-RES ovarian, above 100 µM.

With `CSc1ccc(C2=NN(C(C)=O)C(c3ccc(-c4cc(Cl)c(Cl)cc4Cl)o3)C2)cc1` (stereo unspecified), the GI50 with RXF 393 renal is 17.6 µM; in the experiment on MDA-MB-231 breast, 11.3 µM; in the experiment on MCF7 breast, 12.5 µM; in the experiment on SNB-19 CNS, 17.9 µM; in the experiment with IGROV1 ovarian it was 9.99 µM; in the experiment on OVCAR-4 ovarian it was 13.4 µM. In addition, the GI50 in the experiment on HCC-2998 colon was 15.8 µM; in the experiment on 786-0 renal it was 18.9 µM; in the experiment on NCI-H522 lung it was 13.2 µM; in the experiment with NCI/ADR-RES ovarian, 16.7 µM. The TGI is 35.1 µM in the experiment with RXF 393 renal; 23.3 µM with MDA-MB-231 breast; 26.5 µM in the experiment with MCF7 breast; 32.3 µM in the experiment on SNB-19 CNS; 24.9 µM in the experiment with IGROV1 ovarian; 26.8 µM in the experiment with OVCAR-4 ovarian. Also, the TGI in the experiment with HCC-2998 colon came to 29.6 µM; with 786-0 renal, 32.9 µM; in the experiment on NCI-H522 lung it was 29.7 µM; in the experiment with NCI/ADR-RES ovarian it was 34.1 µM.

Take `O=S(=O)(N=C1C(Cl)=C(Cl)C(=NS(=O)(=O)c2ccccc2)C(Cl)=C1Cl)c1ccccc1`: the GI50 was 15.8 µM in the experiment with RXF 393 renal; 21.9 µM in the experiment with MDA-MB-231 breast; 18 µM in the experiment with MCF7 breast; 38.2 µM with SNB-19 CNS; 18.7 µM in the experiment on IGROV1 ovarian; 22.1 µM with OVCAR-4 ovarian. In addition, the GI50 in the experiment on HCC-2998 colon is 26.6 µM; in the experiment on 786-0 renal, 22.7 µM; in the experiment on NCI-H522 lung it was 11.1 µM; in the experiment on NCI/ADR-RES ovarian it was 26.5 µM. Further, the TGI was 30.9 µM with RXF 393 renal; above 100 µM with MDA-MB-231 breast; above 100 µM with MCF7 breast; above 100 µM with SNB-19 CNS; 40.7 µM with IGROV1 ovarian; above 100 µM in the experiment with OVCAR-4 ovarian. Further, the TGI was 64.6 µM with HCC-2998 colon, 44.1 µM in the experiment on 786-0 renal, 29.7 µM in the experiment with NCI-H522 lung and above 100 µM with NCI/ADR-RES ovarian.

Consider `COc1cc(-n2ccnc2-c2ccc3ccccc3c2)cc(OC)c1OC`, for which the GI50 with RXF 393 renal is 0.17 µM; in the experiment on MDA-MB-231 breast, 0.571 µM; in the experiment on MCF7 breast it was below 0.0199 µM; with SNB-19 CNS, 0.131 µM; in the experiment with IGROV1 ovarian, 0.259 µM; in the experiment on OVCAR-4 ovarian it was 6.32 µM. Besides, the results for the GI50 with HCC-2998 colon, in the experiment on 786-0 renal and in the experiment with NCI-H522 lung were below 0.0318 µM, 0.161 µM and below 0.0175 µM, respectively. In addition, the TGI in the experiment on RXF 393 renal is 0.749 µM; with MDA-MB-231 breast it was 44.1 µM; in the experiment on MCF7 breast, above 45.8 µM; in the experiment on SNB-19 CNS, above 36.7 µM; with IGROV1 ovarian, above 51.2 µM; in the experiment with OVCAR-4 ovarian, above 86.2 µM. Besides, the TGI with HCC-2998 colon came to 0.199 µM; in the experiment with 786-0 renal, 19 µM; in the experiment with NCI-H522 lung it was 13.2 µM; in the experiment on NCI/ADR-RES ovarian, 0.472 µM.

For `NC(=O)c1cc(N2CC2)c([N+](=O)[O-])cc1[N+](=O)[O-]`, the GI50 in the experiment on RXF 393 renal, with SNB-19 CNS, with IGROV1 ovarian, in the experiment on OVCAR-4 ovarian, in the experiment on HCC-2998 colon and with 786-0 renal was above 200 µM each time. The GI50 with NCI-H522 lung is above 200 µM. In addition, the TGI with RXF 393 renal is above 200 µM; in the experiment on MDA-MB-231 breast, above 200 µM; in the experiment with MCF7 breast, above 63.2 µM; in the experiment on SNB-19 CNS, above 200 µM; in the experiment with IGROV1 ovarian, above 200 µM; in the experiment on OVCAR-4 ovarian, above 200 µM. In addition, the TGI in the experiment with HCC-2998 colon, with 786-0 renal, with NCI-H522 lung and with NCI/ADR-RES ovarian was above 200 µM each time.
